This note sets out measurements from publication PMC11091220, “Metabolism-driven in vitro/in vivo disconnect of an oral ERɑ VHL-PROTAC” (Communications Biology, 2024).

Several values for one entry are separate records, joined by “and”; a condition that tells them apart may be missing. Equal values may be shown once. Read-outs that look alike come from different tables or passages of the source.

The target of series [1] is T1, recombinant human ERα ligand binding domain (LBD) (Homo sapiens, UniProt P03372).
T1 construct: purchased Invitrogen PV4543
T1 sequence (P03372 311-547 limits assumed): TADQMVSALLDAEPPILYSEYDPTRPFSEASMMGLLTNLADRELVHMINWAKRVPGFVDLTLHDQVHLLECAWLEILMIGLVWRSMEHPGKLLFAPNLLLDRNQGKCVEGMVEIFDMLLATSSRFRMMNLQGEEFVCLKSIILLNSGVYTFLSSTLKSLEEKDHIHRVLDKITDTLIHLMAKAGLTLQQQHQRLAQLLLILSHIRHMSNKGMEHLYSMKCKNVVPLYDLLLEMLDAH
Nature of the series: ERα binding assay (LanthaScreen TR-FRET competition). As to the method: The ability of compounds to bind to isolated ERα Ligand binding domain (ERα–LBD (GST)) was assessed in competition assays using a LanthaScreenTM Time-Resolved Fluorescence Resonance Energy Transfer (TR-FRET) detection end-point. For the LanthaScreen TR-FRET endpoint, a suitable fluorophore (Fluormone ES2, Product code P2645) and recombinant human ERα ligand binding domain (LBD) (product code PV4543) were purchased from Invitrogen and used to measure compound binding. A terbium-labelled anti-GST antibody (Product code PV3551) is used to indirectly label the receptor by binding to its GST tag, and competitive binding is detected by a test compounds’ ability to displace the fluorescent ligand resulting in a loss of TR-FRET signal between the Tb-anti-GST antibody and the tracer. The assay was performed with all reagent additions carried out using the Beckman Coulter BioRAPTR FRD microfluidic workstation: […]
In general terms: In TR-FRET formats the signal depends on donor and acceptor labels being close together.

Series [2] addresses T2, ERα (Homo sapiens, UniProt P03372).
T2 construct: endogenous in cells; host or cells: MCF7 (also MCF7 engineered to express Cas9)
T2 sequence (P03372 1-595): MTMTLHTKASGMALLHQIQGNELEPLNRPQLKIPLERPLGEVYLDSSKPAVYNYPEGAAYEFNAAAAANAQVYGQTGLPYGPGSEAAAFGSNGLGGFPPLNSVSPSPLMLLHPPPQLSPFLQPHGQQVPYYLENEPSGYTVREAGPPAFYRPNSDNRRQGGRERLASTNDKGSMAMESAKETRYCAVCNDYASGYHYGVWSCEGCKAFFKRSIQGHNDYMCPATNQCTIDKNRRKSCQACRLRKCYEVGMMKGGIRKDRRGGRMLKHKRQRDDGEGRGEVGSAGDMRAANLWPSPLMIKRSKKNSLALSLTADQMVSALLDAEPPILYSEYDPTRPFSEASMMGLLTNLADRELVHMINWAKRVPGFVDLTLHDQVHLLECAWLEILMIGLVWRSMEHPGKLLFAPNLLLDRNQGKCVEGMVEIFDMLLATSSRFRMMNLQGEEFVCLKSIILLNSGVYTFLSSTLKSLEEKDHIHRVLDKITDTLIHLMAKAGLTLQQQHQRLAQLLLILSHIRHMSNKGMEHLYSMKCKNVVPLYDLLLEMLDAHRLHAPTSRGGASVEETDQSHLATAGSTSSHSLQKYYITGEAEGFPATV
Kind of series: ERα high throughput imaging degradation assay in MCF7 cells. The series is classed as cell-based. As to conditions: for Dmax: MCF7; for DC50: MCF7 cells, 20 to 24 hours; for Degradation vs fulvestrant: listed as Cmp 7. As to the method:
Cells were fixed, permeabilised and stained with anti-ERα (rabbit clone SP1, Thermo) and anti-PR (mouse clone PgR 636, Dako) antibodies followed by secondary AlexaFluor 594 goat anti-rabbit and AlexaFluor 488 goat anti-mouse IgG antibodies. Imaging was using the Thermo Cellinsight scanner and average fluorescence intensity was analysed using Genedata.

Series [3] can be described thus: Mouse hepatocyte intrinsic clearance. As to conditions: for hepatocyte CLint at 1 µM: male, CD-1, mouse, hepatocytes. The series is classed as in vitro ADME. As to the method: Livers from CD-1 male mice weighing 30-35 g were digested and perfused using D-Hanks solution containing EDTA or collagenase. Once digested the liver was transferred to a petri dish and the hepatocytes were prepared by washing and centrifuging with a Leibovitz-15 medium containing 50% isotonic percoll. A cell viability >80% was required to progress the cells. The test compound was prepared to 10 mM in 100% DMSO and further diluted to 100 μM in 100% acetonitrile. The hepatocyte incubations were prepared in Leibovitz’s L-15 Medium pH 7.4 containing 1 million hepatocytes/mL and a final compound concentration of 1 µM. Cell viability was determined using a Cellometer Vision and >80% cell viability was required to proceed with the compound incubation. The compound/cell solution (250 µL) was incubated for 2 h at 37 °C and shaken at 900 rpm on an Eppendorf Thermomixer Comfort plate shaker. Samples (20 µL) were taken at 0.5, 5, 15, 30, 45, 60, 80, 100, and 120 min and quenched with 100 μL of 100% ice-cold acetonitrile. Samples were shaken at 800 rpm for 2 min and centrifuged at 4000 rpm for 20 min at 4 °C to pellet precipitated protein. The supernatant fraction was diluted 1:5 with deionised water, shaken at 1000 rpm for 2 min, and further diluted 1:1 with deionised water. Samples were analysed by LC-MS/MS[17].

For series [4], the target named is ESR1-Nanoluciferase fusion protein (Homo sapiens, UniProt P03372). Kind of series: ERα nanoluciferase degradation assay. The series is classed as cell-based. As to conditions: for DC50: 24 hours, read-out: ERα nano-luciferase degradation DC50; for IC50: Table 1 source data, mean, read-out: ERa nanocluciferase degradation DC50 (nM), Mean IC50; for Dmax: read-out: ERα nano-luciferase Dmax. As to the method:
MCF7 pTRIPZ Cas9 cells stably transfected with pSMPNeo dual Luc ESR1 vector (containing ESR1-Nanoluciferase fusion protein/reporter and a Firefly luciferase reporter) were seeded into T175 flasks and incubated for 48 hours in RPMI 1640 media containing 10% (v/v) foetal bovine serum (FBS) and 2 mM L-Glutamine. The cells were then seeded at 20000 cells/well into 384-well plates containing compounds at concentrations ranging from 3.125 µM to 15.9 pM. Following 24 hours incubation (37 °C, 5% CO2), media was removed and ONE-Glow^TM EX luciferase reagent (Promega) was added to each well. Firefly luminescence was measured after 5 minutes using an Envision (PerkinElmer). NanoDLR^TM Stop and Glo® reagent (Promega) was added and incubated for ten minutes (room temperature), before measuring Nano luminescence using the Envision. Wells containing vehicle or 3 µM Fulvestrant were used to normalise data, and degradation of ESR1-Nanoluciferase was analysed using Genedata Screener.

The mark [5] stands for this setting: mean ± s.d., read-out: ERα binding IC50.
Setting [6] is: 0% vehicle control, 100% fulvestrant, read-out: ERα imaging Dmax.
The mark [7] stands for this setting: pH 7.4, read-out: muHeps (mouse hepatocytes) clearance.
Where [8] appears, read: MCF7, read-out: ERα imaging Dmax, 0% vehicle control, 100% fulvestrant.
[9] abbreviates: Table S4 source data, mean, read-out: ERa binding, Mean.
The mark [10] stands for this setting: Table S4 source data, read-out: ERa degradation, Dmax (%).

Sequence of ESR1-Nanoluciferase fusion protein (P40337 whole entry, one chain of several, the tested form may be a part): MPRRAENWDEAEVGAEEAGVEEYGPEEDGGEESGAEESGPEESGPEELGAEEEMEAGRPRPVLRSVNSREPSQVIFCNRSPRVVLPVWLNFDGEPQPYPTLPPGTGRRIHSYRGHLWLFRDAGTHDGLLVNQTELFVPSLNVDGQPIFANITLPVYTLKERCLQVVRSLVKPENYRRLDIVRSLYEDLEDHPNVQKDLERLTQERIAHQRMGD

Turning to `Cc1ncsc1-c1ccc(CNC(=O)[C@@H]2C[C@@H](O)CN2C(=O)[C@@H](NC(=O)COCCOc2cc(F)c([C@@H]3c4[nH]c5ccccc5c4C[C@@H](C)N3CC(C)(C)F)c(F)c2)C(C)(C)C)cc1` [Compound 1], the IC50 in series [1] (setting [5]) was determined as 1.3 nM. Also, the Dmax in series [2] (setting [6]) came to 89 ± 1%. In series [2], this molecule showed a DC50 of 0.6 ± 1.2 nM. The hepatocyte CLint at 1 µM in series [3] (setting [7]) worked out at 22 µL/min/1e6 cells.

For the molecule `Cc1ncsc1-c1ccc(CNC(=O)[C@@H]2C[C@@H](O)CN2C(=O)[C@@H](NC(=O)COCCOCCOc2cc(F)c([C@@H]3c4[nH]c5ccccc5c4C[C@@H](C)N3CC(C)(C)F)c(F)c2)C(C)(C)C)cc1` [Compound 2], the IC50 in series [1] (setting [5]) is 0.6 nM. In addition, the Dmax in series [2] (setting [6]) was 94%. In series [2], the DC50 amounted to 0.8 nM. The hepatocyte CLint at 1 µM in series [3] (setting [7]) turned out to be 40 µL/min/1e6 cells.

As for `Cc1ncsc1-c1ccc(CNC(=O)[C@@H]2C[C@@H](O)CN2C(=O)[C@@H](NC(=O)COCCOCCOCCOc2cc(F)c([C@@H]3c4[nH]c5ccccc5c4C[C@@H](C)N3CC(C)(C)F)c(F)c2)C(C)(C)C)cc1` [Compound 3], the results for the IC50 in series [1] (setting [5]) and in series [4] were 0.3 nM and 3.1 nM, respectively. Besides, the figures for the DC50 in series [4] and in series [2] were 3.1 nM and 0.3 ± 0.1 nM, respectively. Moreover, the Dmax amounted to 124% in series [4] and 99 ± 2% in series [2] (setting [8]). Also, the hepatocyte CLint at 1 µM in series [3] (setting [7]) was 31 µL/min/1e6 cells.

On to `Cc1ncsc1-c1ccc(CNC(=O)[C@@H]2C[C@@H](O)CN2C(=O)[C@@H](NC(=O)COCCOCCOCCOCCOc2cc(F)c([C@@H]3c4[nH]c5ccccc5c4C[C@@H](C)N3CC(C)(C)F)c(F)c2)C(C)(C)C)cc1` [Compound 4], for which the IC50 in series [1] (setting [5]) turned out to be 6.3 nM. The Dmax in series [2] (setting [6]) came out at 101%. In series [2], this molecule showed a half-maximal degradation concentration (DC50) of 3.2 nM. The hepatocyte CLint at 1 µM in series [3] (setting [7]) amounted to 41 µL/min/1e6 cells.

`Cc1ncsc1-c1ccc(CNC(=O)[C@@H]2C[C@@H](O)CN2C(=O)[C@@H](NC(=O)COCCN2CCN(CCOc3cc(F)c([C@@H]4c5[nH]c6ccccc6c5C[C@@H](C)N4CC(C)(C)F)c(F)c3)CC2)C(C)(C)C)cc1` [Compound 6]: the values for the IC50 in series [1] (setting [5]) and in series [4] were 1.3 nM and 46 nM, respectively. Also, the values for the DC50 in series [4] and in series [2] were 46 ± 27 nM and 0.5 ± 0.4 nM, respectively. Also, the figures for the Dmax in series [4] and in series [2] (setting [8]) were 88 ± 1% and 100 ± 0.5%, respectively. For the same molecule, in series [3] (setting [7]), the hepatocyte CLint at 1 µM was 11 µL/min/1e6 cells.

With `Cc1ncsc1-c1ccc(CNC(=O)[C@@H]2C[C@H](O)CN2C(=O)[C@@H](NC(=O)COCCCOCCCOc2cc(F)c([C@@H]3c4[nH]c5ccccc5c4C[C@@H](C)N3CC(C)(C)F)c(F)c2)C(C)(C)C)cc1` [Compound 7], the IC50 in series [1] (setting [5]) was 1 nM; in series [4], above 3000 nM. Further, the DC50 in series [4] was above 3000 nM; in series [2], 3.1 nM. The Degradation vs fulvestrant is 64.0% and 68.3% in series [2] (Log M -6.5, MCF7, 24 h); 68.3% and 71.6% and 59.3% and 58.8% in series [2] (Log M -7.0); 65.0% and 59.3% and 59.1% and 57.9% in series [2] (Log M -7.5); 65.6% and 48.2% and 57.7% and 56.0% in series [2] (Log M -7.9); 49.3% and 36.8% and 53.9% and 47.6% in series [2] (Log M -8.5); 32.2% and 32.7% and 45.9% and 42.5% in series [2] (Log M -9.0). Further, in series [2] (setting [8]), the Dmax is around 65%.

For the molecule `Cc1ncsc1-c1ccc(CNC(=O)[C@@H]2C[C@@H](O)CN2C(=O)[C@@H](NC(=O)COCCOCCCCOc2cc(F)c([C@@H]3c4[nH]c5ccccc5c4C[C@@H](C)N3CC(C)(C)F)c(F)c2)C(C)(C)C)cc1` [Compound 9], the IC50 in series [1] (setting [9]) was found to be 0.6 nM. In addition, in series [2], the DC50 amounted to 0.5 ± 0.1 nM. Also, in series [2] (Table S4 source data), the “ERa degradation, Dmax (%)” value was found to be 100%. In addition, the “muHeps, Mean Clint (mL/min/10^6 cells)” value in series [3] (mouse hepatocytes, Table S4 source data) is 14 mL/min/10^6 cells.

On to `Cc1ncsc1-c1ccc(CNC(=O)[C@@H]2C[C@@H](O)CN2C(=O)[C@@H](NC(=O)COCCCOCCOc2cc(F)c([C@@H]3c4[nH]c5ccccc5c4C[C@@H](C)N3CC(C)(C)F)c(F)c2)C(C)(C)C)cc1` [Compound 10], for which the IC50 in series [1] (setting [9]) was found to be 0.5 nM. Moreover, the Dmax in series [2] (setting [10]) was 100%. The same molecule registered a DC50 in series [2] of 0.4 nM. Also, the hepatocyte CLint at 1 µM amounted to 19 µL/min/1e6 cells in series [3] (pH 7.4, mouse hepatocytes, Table S4 source data, read-out: muHeps, Mean Clint (mL/min/10^6 cells)) and 20 ± 1 µL/min/1e6 cells in series [3] (setting [7]).

With `Cc1ncsc1-c1ccc(CNC(=O)[C@@H]2C[C@@H](O)CN2C(=O)[C@@H](NC(=O)C2(OCCCOCCCOc3cc(F)c([C@@H]4c5[nH]c6ccccc6c5C[C@@H](C)N4CC(C)(C)F)c(F)c3)CC2)C(C)(C)C)cc1` [Compound 13], the IC50 in series [1] (setting [9]) was found to be 1 nM. Further, the Dmax in series [2] (setting [10]) was 96%. The molecule further had a DC50 in series [2] of 2 nM.

Take `Cc1ncsc1-c1ccc(CNC(=O)[C@@H]2C[C@@H](O)CN2C(=O)[C@@H](NC(=O)COCCCc2cccc(COc3cc(F)c([C@@H]4c5[nH]c6ccccc6c5C[C@@H](C)N4CC(C)(C)F)c(F)c3)c2)C(C)(C)C)cc1` [Compound 14]: the Dmax in series [2] (setting [10]) was 103%. The same molecule gave a DC50 in series [2] of 4.9 nM.

Consider `Cc1ncsc1-c1ccc(CNC(=O)[C@@H]2C[C@@H](O)CN2C(=O)[C@@H](NC(=O)COCc2cccc(CCCOc3cc(F)c([C@@H]4c5[nH]c6ccccc6c5C[C@@H](C)N4CC(C)(C)F)c(F)c3)c2)C(C)(C)C)cc1` [Compound 15], for which the Dmax in series [2] (setting [10]) turned out to be 106%. This molecule also gave a DC50 in series [2] of 14 nM.

In general, Dmax refers to the greatest extent of degradation seen. The DC50 is the concentration giving 50% degradation.
